Laboratory results from ChEMBL document CHEMBL1201862, “PubChem BioAssay data set” (2004).
Where “and” joins values, the source holds several entries; their conditions need not be identical. Equal entries are not always repeated. Calls of active or inactive are those of the source.

Key:
[1] = molecular target: Glucose-6-phosphate 1-dehydrogenase (Homo sapiens, UniProt P11413); experiment: human G6PD enzyme inhibitors, dose response, selectivity assay for P. falciparum G6PD inhibitor project, biochemical, fluorescence (AID 504792); assay type: functional
Hexokinase = molecular target: T1, Hexokinase (Trypanosoma brucei, UniProt Q38C41); experiment: Confirmation assay for inhibitors of Trypanosoma brucei hexokinase 1-Analogue-first series. [Related pubchem assays (depositor defined):AID1430, AID1632, AID2516, AID2560, AID2579, AID2600, AID449725, AID492951]; assay type: functional
T1 sequence (Q38C41 whole entry): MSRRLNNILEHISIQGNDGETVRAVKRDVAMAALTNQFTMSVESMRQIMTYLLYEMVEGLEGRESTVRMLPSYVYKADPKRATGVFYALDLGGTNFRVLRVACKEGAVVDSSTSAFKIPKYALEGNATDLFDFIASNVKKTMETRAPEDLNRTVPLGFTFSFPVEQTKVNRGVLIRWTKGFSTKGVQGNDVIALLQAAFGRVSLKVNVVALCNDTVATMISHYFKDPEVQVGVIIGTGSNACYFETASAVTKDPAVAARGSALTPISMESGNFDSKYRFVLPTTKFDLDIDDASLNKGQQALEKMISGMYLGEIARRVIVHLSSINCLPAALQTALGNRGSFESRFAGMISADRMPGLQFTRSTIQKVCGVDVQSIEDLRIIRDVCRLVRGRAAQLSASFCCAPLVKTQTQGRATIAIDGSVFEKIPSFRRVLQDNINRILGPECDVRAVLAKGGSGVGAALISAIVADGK

[2] = Luminescence Cell-Based Dose Confirmation HTS to Identify Inhibitors of Polyadenylation.; assay type: functional
[3] = A cytotoxicity screen of small molecule inhibitors of the PhoP region in Salmonella typhi identified in the primary screen. [Related pubchem assays: 1850, 1864, 1985 ]; assay type: functional
Large T antigen = Large T antigen (Simian virus 40, UniProt P03070); assay type: functional, Betapolyomavirus macacae;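 further: Confirmatory-stage PubChem screen for compounds that inhibit SV40 T antigen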
Aspartyl aminopeptidase = molecular target: T2, Aspartyl aminopeptidase (Plasmodium falciparum 3D7, UniProt Q8I2J3)
T2 sequence (Q8I2J3 whole entry): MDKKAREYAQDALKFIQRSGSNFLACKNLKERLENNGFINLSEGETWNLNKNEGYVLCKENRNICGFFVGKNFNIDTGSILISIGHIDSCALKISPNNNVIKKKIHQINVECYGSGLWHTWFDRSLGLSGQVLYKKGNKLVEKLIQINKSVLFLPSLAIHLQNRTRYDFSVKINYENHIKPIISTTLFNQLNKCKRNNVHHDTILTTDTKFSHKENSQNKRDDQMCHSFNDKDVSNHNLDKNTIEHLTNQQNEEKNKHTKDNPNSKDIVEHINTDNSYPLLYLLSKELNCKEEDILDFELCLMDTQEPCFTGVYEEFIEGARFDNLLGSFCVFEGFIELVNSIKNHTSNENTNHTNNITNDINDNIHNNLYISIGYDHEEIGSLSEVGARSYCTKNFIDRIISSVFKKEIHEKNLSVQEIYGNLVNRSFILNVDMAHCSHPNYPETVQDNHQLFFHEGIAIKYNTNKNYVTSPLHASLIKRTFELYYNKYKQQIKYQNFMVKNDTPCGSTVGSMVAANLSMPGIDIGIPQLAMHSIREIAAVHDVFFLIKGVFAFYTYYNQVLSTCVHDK

Procathepsin L = Procathepsin L (Homo sapiens, UniProt P07711)
[4] = molecular target: Induced myeloid leukemia cell differentiation protein Mcl-1 (Homo sapiens, UniProt Q07820); assay type: functional
[5] = molecular target: DNA dC->dU-editing enzyme APOBEC-3G (Homo sapiens, UniProt Q9HC16); experiment: Dose Response confirmation of small molecule APOBEC3G DNA Deaminase Inhibitors via a fluorescence-based single-stranded DNA deaminase assay. [Related pubchem assays (depositor defined):AID493012, AID493028]; assay type: functional
[6] = inhibitors of intracellular T. cruzi replication, confirmation, NIH3T3 host cells, beta-gal luminescence (AID 2044); assay type: functional, cell-based;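 further: intracellular parasites grown in NIH/3T3 mouse fibroblasts as host cells; luminescent beta-galactosidase reporter signal from transgenic T. cruzi replicating inside host cells; inhibitors lower the luminescence signal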
[7] = HepG2 cell cytotoxicity, dose response, cytotoxicity control for non-replicating M. tuberculosis project (AID 489018); assay type: functional; conditions: Mycobacterium tuberculosis
[8] = test system: Streptococcus sp. 'group A'; experiment: growth inhibition of control SK(-) GAS strain, dose response, counter-screen for streptokinase expression inhibitor project, luminescence, kanamycin, BacTiterGlo, confirmation (AID 1900); assay type: functional, organism-based
Streptococcus = experiment: Group A Streptococcus viability loss, dose response, counter-screen for streptokinase expression inhibitor project, luminescence, BacTiterGlo (AID 1915); assay type: functional, organism-based;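 further: potency for reduction of bacterial viability or growth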
cells = assay type: functional
[9] = THP-1 cell cytotoxicity, dose response, cytotoxicity control for non-replicating M. tuberculosis project (AID 489025); assay type: functional
INS1 = experiment: beta cell apoptosis inhibitors, cytokine rescue, dose response, luminescence, retest (AID 449756); assay type: functional, cell-based; conditions: Rattus norvegicus, INS1;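 further: cell death triggered by IL-1 beta plus TNF-alpha plus IFN-gamma mixture; protective hits raise ATP signal compared with cytokine alone wells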
[10] = Vero E6 cell cytotoxicity, dose response, cytotoxicity control for non-replicating M. tuberculosis project, secondary assay (AID 492998); assay type: functional, VeroE6; conditions: Vero C1008
Streptokinase A = molecular target: T3, Streptokinase A (Streptococcus pyogenes serotype M1, UniProt P10520); experiment: S. pyogenes streptokinase expression inhibitors, potency, dose response, plasminogen activation absorbance, OD405 (AID 1914); assay type: functional, Streptococcus pyogenes M1 GAS;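 further: secreted streptokinase activity via plasminogen activation per viability signal from cell pellet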
T3 sequence (P10520 whole entry): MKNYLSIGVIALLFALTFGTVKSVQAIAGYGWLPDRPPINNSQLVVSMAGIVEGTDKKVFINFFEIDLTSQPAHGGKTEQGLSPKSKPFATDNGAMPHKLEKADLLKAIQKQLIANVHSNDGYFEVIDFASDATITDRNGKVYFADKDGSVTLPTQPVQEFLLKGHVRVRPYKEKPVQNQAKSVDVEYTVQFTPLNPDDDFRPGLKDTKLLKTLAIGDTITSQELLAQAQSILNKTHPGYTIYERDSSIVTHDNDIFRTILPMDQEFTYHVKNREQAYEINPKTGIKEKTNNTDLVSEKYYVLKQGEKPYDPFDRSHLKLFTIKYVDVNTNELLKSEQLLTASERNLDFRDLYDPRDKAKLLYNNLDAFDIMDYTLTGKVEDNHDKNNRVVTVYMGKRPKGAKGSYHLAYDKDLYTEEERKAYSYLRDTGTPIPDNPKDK

[11] = cytotoxicity toward NIH3T3 fibroblasts, dose response, counter-screen, cell-based, ATP luminescence, mouse fibroblasts (AID 2010); assay type: functional;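 further: cells exposed to compound for about 90 hours before reading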
[12] = molecular target: FAD-linked sulfhydryl oxidase ALR (Homo sapiens, UniProt P55789); experiment: inhibitors of human ALR sulfhydryl oxidase, dose response, biochemical, H2O2 detection, luminescence, cherry-pick (AID 493248)
[13] = A Cell Based Secondary Assay To Explore Cytotoxicity of Compounds that Sensitize Mycobacterium Tuberculosis to Beta-Lactam Antibiotics.; assay type: functional

Sequence of DNA dC->dU-editing enzyme APOBEC-3G (Q9HC16 whole entry): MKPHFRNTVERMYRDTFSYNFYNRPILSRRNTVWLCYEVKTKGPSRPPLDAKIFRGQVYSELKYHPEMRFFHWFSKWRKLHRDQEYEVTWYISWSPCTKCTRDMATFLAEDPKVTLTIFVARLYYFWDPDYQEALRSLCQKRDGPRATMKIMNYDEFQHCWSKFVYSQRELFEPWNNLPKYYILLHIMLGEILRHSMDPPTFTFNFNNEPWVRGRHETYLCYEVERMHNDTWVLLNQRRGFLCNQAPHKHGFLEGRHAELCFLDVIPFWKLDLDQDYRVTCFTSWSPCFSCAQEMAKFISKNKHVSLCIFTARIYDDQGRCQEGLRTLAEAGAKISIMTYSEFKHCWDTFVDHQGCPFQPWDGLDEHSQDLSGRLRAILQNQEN
Sequence of FAD-linked sulfhydryl oxidase ALR (P55789 whole entry): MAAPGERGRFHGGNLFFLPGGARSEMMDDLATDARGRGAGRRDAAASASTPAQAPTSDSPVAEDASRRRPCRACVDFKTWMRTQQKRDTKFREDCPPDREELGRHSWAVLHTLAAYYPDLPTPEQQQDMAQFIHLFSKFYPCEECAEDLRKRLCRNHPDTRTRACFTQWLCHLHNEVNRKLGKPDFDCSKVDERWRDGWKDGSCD
Sequence of Procathepsin L (P07711 whole entry): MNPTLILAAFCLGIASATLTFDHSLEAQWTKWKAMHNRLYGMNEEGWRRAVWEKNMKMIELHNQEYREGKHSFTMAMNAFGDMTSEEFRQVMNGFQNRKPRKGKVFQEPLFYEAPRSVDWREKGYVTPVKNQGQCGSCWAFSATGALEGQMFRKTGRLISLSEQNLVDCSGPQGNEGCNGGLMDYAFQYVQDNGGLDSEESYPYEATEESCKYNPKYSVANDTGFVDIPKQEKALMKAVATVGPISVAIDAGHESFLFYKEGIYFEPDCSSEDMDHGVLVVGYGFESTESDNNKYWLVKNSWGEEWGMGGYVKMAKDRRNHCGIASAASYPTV
Sequence of Large T antigen (P03070 whole entry): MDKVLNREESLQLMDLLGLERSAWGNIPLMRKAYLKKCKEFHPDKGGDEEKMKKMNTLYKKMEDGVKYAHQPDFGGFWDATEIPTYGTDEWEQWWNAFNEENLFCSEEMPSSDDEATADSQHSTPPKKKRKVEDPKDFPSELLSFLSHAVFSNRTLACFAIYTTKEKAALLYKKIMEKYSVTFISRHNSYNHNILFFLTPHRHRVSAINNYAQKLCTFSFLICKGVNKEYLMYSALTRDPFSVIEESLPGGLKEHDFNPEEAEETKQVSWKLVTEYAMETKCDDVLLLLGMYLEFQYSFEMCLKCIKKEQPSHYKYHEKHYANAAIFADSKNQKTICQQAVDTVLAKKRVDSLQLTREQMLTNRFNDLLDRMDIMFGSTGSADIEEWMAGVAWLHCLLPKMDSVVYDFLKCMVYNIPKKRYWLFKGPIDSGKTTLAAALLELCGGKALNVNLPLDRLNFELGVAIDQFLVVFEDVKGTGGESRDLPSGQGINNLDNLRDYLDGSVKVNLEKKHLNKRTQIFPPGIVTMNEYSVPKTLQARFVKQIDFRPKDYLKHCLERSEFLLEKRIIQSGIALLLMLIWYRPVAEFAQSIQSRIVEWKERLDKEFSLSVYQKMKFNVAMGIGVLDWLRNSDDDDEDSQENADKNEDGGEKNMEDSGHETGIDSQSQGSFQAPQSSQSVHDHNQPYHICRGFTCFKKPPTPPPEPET
Sequence of Induced myeloid leukemia cell differentiation protein Mcl-1 (Q07820 whole entry): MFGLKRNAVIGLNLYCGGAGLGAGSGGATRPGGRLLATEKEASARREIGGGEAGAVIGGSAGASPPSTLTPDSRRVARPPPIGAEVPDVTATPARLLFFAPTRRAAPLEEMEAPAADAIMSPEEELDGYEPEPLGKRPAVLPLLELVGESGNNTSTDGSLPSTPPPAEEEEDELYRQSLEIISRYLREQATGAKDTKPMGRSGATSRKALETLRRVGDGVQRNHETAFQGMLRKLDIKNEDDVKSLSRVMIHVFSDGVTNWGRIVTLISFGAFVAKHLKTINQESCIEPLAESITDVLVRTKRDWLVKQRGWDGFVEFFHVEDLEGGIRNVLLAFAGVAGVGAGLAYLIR
Sequence of Glucose-6-phosphate 1-dehydrogenase (P11413 whole entry): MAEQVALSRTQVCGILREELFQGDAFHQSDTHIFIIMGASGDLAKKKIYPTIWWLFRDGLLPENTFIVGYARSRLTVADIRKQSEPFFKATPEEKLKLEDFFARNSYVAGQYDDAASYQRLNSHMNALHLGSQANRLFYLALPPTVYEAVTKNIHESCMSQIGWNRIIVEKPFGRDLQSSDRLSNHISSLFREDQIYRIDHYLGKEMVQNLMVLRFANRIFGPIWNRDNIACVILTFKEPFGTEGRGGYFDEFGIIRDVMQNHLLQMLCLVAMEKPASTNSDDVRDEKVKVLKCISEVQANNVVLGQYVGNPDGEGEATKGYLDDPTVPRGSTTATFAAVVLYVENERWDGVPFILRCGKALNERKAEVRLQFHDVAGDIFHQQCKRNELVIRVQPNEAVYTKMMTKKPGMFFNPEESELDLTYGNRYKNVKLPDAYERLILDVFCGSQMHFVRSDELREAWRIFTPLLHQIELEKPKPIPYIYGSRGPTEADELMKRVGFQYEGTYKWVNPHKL

COc1ccc(C(=O)Nc2cc(Cl)ccc2C(=O)O)cc1
IC50 [1]: > 80 µM (inactive)
IC50 (Hexokinase): 11.2 µM (active) and 8.23 µM (active)

O=C(NNC(=S)NC1CC2C=CC1C2)c1cccnc1 (centres undefined)
EC50 [2]: > 120 µM (not active)

CCN1CCN(C(=O)c2cc3cc(Cl)ccc3[nH]2)CC1
EC50 [3]: > 50 µM (active)

O=[N+]([O-])c1cc([N+](=O)[O-])c2cccnc2c1Oc1ccccc1O
IC50 (Large T antigen): 7.81 µM (active)
IC50 (Aspartyl aminopeptidase): 3.27 µM (active)
IC50 (Procathepsin L): > 59.6 µM (not active)
EC50 [3]: > 50 µM (active)
IC50 [4]: 2.82 µM (active)

S=C(c1ccc(-c2ccccc2Cl)o1)N1CCOCC1
IC50 [5]: 44.6 µM (active)

O=C1CC(c2ccc(Cl)cc2)N2CCNC2=C1C(=O)Nc1ccccc1 (centres undefined)
EC50 [3]: > 50 µM (active)

O=C(Nc1cc(Cl)ccc1C(=O)O)c1ccc2c(c1)CCC2
IC50 (Hexokinase): 4.83 µM (active)

CC(C)(C)c1cc(C(=O)N/N=C/c2ccc([N+](=O)[O-])s2)[nH]n1
EC50 [6]: 0.15 µM (active)
CC50 [7]: > 20 µM (active)
EC50 [8]: 12.3 µM (active)
EC50 (Streptococcus): 15.8 µM (active)
IC50 (cells): 5.22 µM (active)
CC50 [9]: 18.9 µM (active)
AC50 (INS1): 6.87 µM (active)
CC50 [10]: 12 µM (active)
EC50 (Streptokinase A): > 150 µM (not active)
EC50 [11]: > 60 µM (not active)

O=C(COC(=O)Cc1ccc(S(=O)(=O)N2CCOCC2)s1)Nc1ccc2c(c1)OCO2
EC50 [2]: > 120 µM (not active)

COCCCN=C(S)NN=C(S)Nc1ccccc1
IC50 [5]: 16.4 µM (active)

C=CCn1c(S)nnc1-c1cccc([N+](=O)[O-])c1
AC50 [12]: 9.06 µM (active)
IC50 [5]: 8.72 µM (active)

CC(NC(=O)c1ccc(Br)cc1)c1ccccc1 (centres undefined)
EC50 [2]: > 120 µM (not active)

Cc1ccc(OCC(=O)Nc2ccc3c4c(cccc24)CC3)c(C)c1
CC50 [13]: > 40 µM (active)

COc1ccc([N+](=O)[O-])cc1C1NN=C(c2ccccc2O)S1 (centres undefined)
CC50 [13]: > 40 µM (active)
